In the experiment the target is Nanoluciferase-BRD9 fusion protein (Homo sapiens (Human), UniProt Q9H8M2). Description: SYO1 BRD9 NanoLuc degradation assay. The following applies: SYO-1 cells expressing 3×FLAG-NLuc-BRD9, 6 hours; for DC50: read-out: SYO1 BRD9-NanoLuc degradation IC50. The format is cell-based. The method, boiled down: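 Degradation was read as loss of nanoluciferase signal (Nano-Glo) after 6 h compound exposure in a stable SYO-1 line carrying 3×FLAG-NLuc-BRD9 (8000 cells/well). Normalised between DMSO (high) and a 1 μM known BRD9 degrader (low).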

Like-named read-outs stand apart in the source and are kept apart here.

Chain of Nanoluciferase-BRD9 fusion protein (Q9H8M2 whole entry, the tested form may be a part): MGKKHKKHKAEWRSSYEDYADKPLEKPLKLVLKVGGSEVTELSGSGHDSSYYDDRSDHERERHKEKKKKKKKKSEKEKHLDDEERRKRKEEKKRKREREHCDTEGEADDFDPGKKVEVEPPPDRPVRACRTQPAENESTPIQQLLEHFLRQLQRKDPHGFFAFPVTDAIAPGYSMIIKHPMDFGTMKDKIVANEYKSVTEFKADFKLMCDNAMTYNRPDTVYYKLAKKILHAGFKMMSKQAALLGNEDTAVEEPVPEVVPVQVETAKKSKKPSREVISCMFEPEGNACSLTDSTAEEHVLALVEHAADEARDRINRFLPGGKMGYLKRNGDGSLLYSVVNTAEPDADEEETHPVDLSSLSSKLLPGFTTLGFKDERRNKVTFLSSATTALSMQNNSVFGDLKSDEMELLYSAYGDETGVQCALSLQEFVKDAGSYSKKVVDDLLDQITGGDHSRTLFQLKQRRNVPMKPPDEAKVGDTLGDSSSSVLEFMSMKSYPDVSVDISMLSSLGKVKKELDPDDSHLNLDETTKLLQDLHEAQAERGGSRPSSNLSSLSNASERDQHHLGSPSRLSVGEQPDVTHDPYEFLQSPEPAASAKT

With `COc1cc(-c2cc(C)c(=O)n(C)c2)cc(OC)c1CN1CCC(C#Cc2ccc3c(c2)C(=O)N(C2CCC(=O)NC2=O)C3)C1` (stereo not drawn) [Compound D442], the DC50 (Table 5C) is under 10 nM. With `COc1cc(-c2cn(C)c(=O)c3cnccc23)cc(OC)c1CN(C)CCCn1cc(COC2CN(c3ccc4c(c3)C(=O)N(C3CCC(=O)NC3=O)C4=O)C2)nn1` (stereo not drawn) [Compound D286], the DC50 (Table 5B) is 10 to 100 nM.

Turning to `COc1cc(-c2cn(C)c(=O)c3cnccc23)cc(OC)c1CN1CC2(CN(CCOc3ccc4c(c3)C(=O)N(C3CCC(=O)NC3=O)C4=O)C2)C1` (stereo not drawn) [Compound D43, 5-[2-(6-[[2,6-Dimethoxy-4-(2-methyl-1-oxo-2,7-naphthyridin-4-yl)phenyl]methyl]-2,6-diazaspiro[3.3]heptan-2-yl)ethoxy]-2-(2,6-dioxopiperidin-3-yl)isoindole-1,3-dione formic acid], the DC50 (Table 5A) lay within 100 to 1000 nM. Consider `COc1cc(-c2cc(C(F)F)c(=O)n(C)c2)cc(OC)c1CN1CCC2(CC1)CN(c1ccc3c(c1)C(=O)N(C1CCC(=O)NC1=O)C3=O)C2` (stereo not drawn) [Compound D341], for which the DC50 (Table 5B) is under 10 nM.

Take `COc1cc(-c2cn(C)c(=O)c3cnccc23)cc(OC)c1CN1CCC2(CC1)CN(c1ccnc(C(=O)NC3CCC(=O)NC3=O)c1)C2` (stereo not drawn) [Compound D471]: the DC50 (Table 5C) is under 10 nM. Consider `COc1cc(-c2cn(C)c(=O)c3cnccc23)cc(OC)c1CN(C)CCCCN1CCC2(C1)CN(c1ccc3c(c1)C(=O)N(C1CCC(=O)NC1=O)C3=O)C2` (stereo not drawn) [Compound D226], for which the DC50 (Table 5B) was under 10 nM. With `COc1cc(-c2cn(C)c(=O)c3cnccc23)cc(OC)c1CN1CC2(CCN(C(=O)CCC#Cc3ccc4c(c3)C(=O)N(C3CCC(=O)NC3=O)C4=O)CC2)C1` (stereo not drawn) [Compound D219], for the setting “Table 5B”, the DC50 is under 10 nM. On to `COc1cc(-c2cn(C)c(=O)c3cnccc23)cc(OC)c1CN(C)CCOCCOCCNc1cccc2nc(C)n(C3CCC(=O)NC3=O)c(=O)c12` (stereo not drawn) [DD3], for which the DC50 (Table 5B) is over 1000 nM. As for `COc1cc(-c2cn(C)c(=O)c3cnccc23)cc(OC)c1CN1CC(n2cc(COC3CN(c4ccc5c(c4)C(=O)N(C4CCC(=O)NC4=O)C5=O)C3)nn2)C1` (stereo not drawn) [Compound D301], under “Table 5B”, the DC50 was under 10 nM. On to `COc1cc(-c2cc(C(F)F)c(=O)n(C)c2)cc(OC)c1CN1CCN(CCC2CCN(c3ccc4c(c3)C(=O)N(C3CCC(=O)NC3=O)C4=O)CC2)CC1` (stereo not drawn) [Compound D398], for which the DC50 (Table 5C) was under 10 nM.

`COc1cc(-c2cn(C)c(=O)c3cnccc23)cc(OC)c1CN(C)C(=O)CCCCN1CC2(C1)CN(c1ccc3c(c1)C(=O)N(C1CCC(=O)NC1=O)C3=O)C2` (stereo not drawn) [Compound D206]: for the setting “Table 5B”, the DC50 is under 10 nM. With `COc1cc(-c2cn(C)c(=O)c3cnccc23)cc(OC)c1CN1CC2(C1)CN(C(=O)CCC#Cc1ccc3c(c1)C(=O)N(C1CCC(=O)NC1=O)C3=O)C2` (stereo not drawn) [Compound D200], the DC50 (Table 5B) was in the range of 10 to 100 nM. As to `COc1cc(-c2cn(C)c(=O)c3cnn(C)c23)cc(OC)c1CN1CCC2(CC1)CN(c1ccc3c(c1)C(=O)N(C1CCC(=O)NC1=O)C3)C2` (stereo not drawn) [Compound D414], the DC50 (Table 5C) was under 10 nM. Take `COc1cc(-c2cc(C)c(=O)n(C)c2)cc(OC)c1CN1CCC2(CC1)CC(Oc1ccc3c(c1)C(=O)N(C1CCC(=O)NC1=O)C3=O)C2` (stereo not drawn) [Compound D332]: under “Table 5B”, the DC50 is under 10 nM.

`COc1cc(-c2cn(C)c(=O)c3cnccc23)cc(OC)c1CN1CC2(C1)CN(C(=O)CC#Cc1ccc3c(c1)C(=O)N(C1CCC(=O)NC1=O)C3=O)C2` (stereo not drawn) [Compound D317]: under “Table 5B”, the DC50 lay in the range of 10 to 100 nM. Turning to `COc1cccc(OC)c1CN1CCC2(CC1)CN(c1ccc3c(c1)C(=O)N(C1CCC(=O)NC1=O)C3)C2` (stereo not drawn) [DD12], the DC50 (Table 5C) is over 1000 nM. Same read-out and setting: with `COc1cc(-c2cc(C(F)F)c(=O)n(C)c2)cc(OC)c1CN1CCC2(C1)CN(c1ccc3c(c1)C(=O)N(C1CCC(=O)NC1=O)C3=O)C2` (stereo not drawn) [Compound D406] the figure was under 10 nM. Regarding `COc1cc(-c2cn(C)c(=O)c3cnccc23)cc(OC)c1CN(C)CCCCNC1CC2(C1)CN(c1ccc3c(c1)C(=O)N(C1CCC(=O)NC1=O)C3=O)C2` (stereo not drawn) [Compound D250], the DC50 (Table 5B) is under 10 nM. As for `COc1cc(C(=O)N2CCC3(CC2)CN(c2ccc4c(c2)C(=O)N(C2CCC(=O)NC2=O)C4)C3)cc(-c2cn(C)c(=O)c3cnccc23)c1` (stereo not drawn) [Compound D380], for the setting “Table 5C”, the DC50 is 10 to 100 nM.

For the compound `CCc1cc(-c2cn(C)c(=O)c3cnccc23)cc(OC)c1CN1CC(Oc2ccc3c(c2)C(=O)N(C2CCC(=O)NC2=O)C3=O)C1` (stereo not drawn) [Compound D385], the DC50 (Table 5C) was under 10 nM.

Take `COc1cc(-c2nc(N)nc3[nH]cnc23)cc(OC)c1CN1CCC2(CC1)CN(c1ccc3c(c1)C(=O)N(C1CCC(=O)NC1=O)C3)C2` (stereo not drawn) [DD15]: the DC50 (Table 5C) lay within 10 to 100 nM.

In the case of `COc1cc(-c2cn(C)c(=O)c3cnccc23)cc(OC)c1CN(C)CCCCNC1CCC12CN(c1ccc3c(c1)C(=O)N(C1CCC(=O)NC1=O)C3=O)C2` (stereo not drawn) [Compound D245], the DC50 (Table 5B) was in the range of 10 to 100 nM. For `COc1cccc(OC)c1CN1CCN(c2ccc3c(c2)C(=O)N(C2CCC(=O)NC2=O)C3)CC1` (stereo not drawn) [DD14], the DC50 (Table 5C) is over 1000 nM.

With `COc1cc(-c2cn(C)c(=O)c3cn(C)nc23)cc(OC)c1CN1CC(CN2CCC3(CC2)CN(c2ccc4c(c2)C(=O)N(C2CCC(=O)NC2=O)C4)C3)C1` (stereo not drawn) [Compound D402], the DC50 (Table 5C) was under 10 nM. Regarding `COc1cc(-c2cn(C)c(=O)c3cnccc23)cc(OC)c1CN(C)C(=O)CCCCNC1CC2(CCN(c3ccc4c(c3)C(=O)N(C3CCC(=O)NC3=O)C4=O)CC2)C1` (stereo not drawn) [Compound D256], the DC50 (Table 5B) was under 10 nM.

Take `CNC(=O)NCc1cc(-c2cc(OC)c(CN3CC(CN4CCC5(CC4)CN(c4ccc6c(c4)C(=O)N(C4CCC(=O)NC4=O)C6=O)C5)C3)c(OC)c2)cn(C)c1=O` (stereo not drawn) [Compound D350]: for the setting “Table 5B”, the DC50 lay in the range of 100 to 1000 nM. As to `COc1cc(-c2cn(C)c(=O)c3cnccc23)cc(OC)c1CN1CCC2(CC1)CN(c1cc(C(=O)NC3CCC(=O)NC3=O)ncn1)C2` (stereo not drawn) [Compound D395], under “Table 5C”, the DC50 was under 10 nM. For the compound `COc1cc(-c2cc(C)c(=O)n(C)c2)cc(OC)c1CN1CCC(C#Cc2ccc3c(c2)C(=O)N(C2CCC(=O)NC2=O)C3)CC1` (stereo not drawn) [Compound D443], for the setting “Table 5C”, the DC50 is under 10 nM. For the compound `COc1cc(-c2cn(C)c(=O)c3cnccc23)cc(OC)c1Cn1cc(COC2CCN(c3ccc4c(c3)C(=O)N(C3CCC(=O)NC3=O)C4=O)CC2)nn1` (stereo not drawn) [Compound D272], for the setting “Table 5B”, the DC50 was under 10 nM.

In the case of `COc1cc(-c2cn(C)c(=O)c3cnccc23)cc(OC)c1CN1CCC2(C1)CN(C(=O)CCC#Cc1ccc3c(c1)C(=O)N(C1CCC(=O)NC1=O)C3=O)C2` (stereo not drawn) [Compound D269], the DC50 (Table 5B) was under 10 nM.

With `COc1cc(-c2cn(C)c(=O)c3cnccc23)cc(OC)c1CN1CC(CC(=O)N2CCC3(C2)CN(c2ccc4c(c2)C(=O)N(C2CCC(=O)NC2=O)C4=O)C3)C1` (stereo not drawn) [Compound D193], under “Table 5B”, the DC50 lay in the range of 100 to 1000 nM. `COc1cc(-c2cn(C)c(=O)c3cnccc23)cc(OC)c1CN1CCC2(CC1)CN(c1ccc3c(c1)C(=O)N(C1CC(=O)NC1=O)C3)C2` (stereo not drawn) [Compound D382]: the DC50 (Table 5C) is under 10 nM. `C/C=C/Cn1cc(-c2ccc(CN3CCN(S(=O)(=O)c4ccc5c(c4)C(=O)N(C4CCC(=O)NC4=O)C5)CC3)c(Cl)c2)n2cncc2c1=O` (stereo not drawn) [Compound D464] showed an IC50 (Table 5C) of over 1000 nM. On to `COc1cc(-c2cc(C(F)F)c(=O)n(C)c2)cc(OC)c1CN1CCC2(CC1)CN(c1ccc3c(c1)C(=O)N(C1CCC(=O)NC1=O)C3)C2` (stereo not drawn) [Compound D425], for which the DC50 (Table 5C) was under 10 nM. With `COc1cc(-c2cn(C)c(=O)c3cnn(C)c23)cc(OC)c1CN1CCC2(CC1)CN(c1ccc3c(c1)C(=O)N(C1CCC(=O)NC1=O)C3=O)C2` (stereo not drawn) [Compound D413], the DC50 (Table 5C) was under 10 nM. `COc1cc(-c2cn(C)c(=O)c3cnccc23)cc(OC)c1CN1CC(Oc2ccc3c(c2)CN(C2CCC(=O)N(COC(=O)[C@@H](N)C(C)C)C2=O)C3=O)C1` (stereo partly drawn) [Compound D384]: the DC50 (Table 5C) is under 10 nM. For the compound `COc1cc(-c2c(C)n(C)c(=O)c3[nH]c(C)cc23)cc(OC)c1CN1CCC2(CC1)CN(c1ccc3c(c1)C(=O)N(C1CCC(=O)NC1=O)C3=O)C2` (stereo not drawn) [Compound D446], under “Table 5C”, the DC50 was over 1000 nM. `COc1cc(-c2cn(C)c(=O)c3cnccc23)cc(OC)c1CN1CC2(CCN(C(=O)CC#Cc3ccc4c(c3)C(=O)N(C3CCC(=O)NC3=O)C4=O)CC2)C1` (stereo not drawn) [Compound D312]: for the setting “Table 5B”, the DC50 was under 10 nM. In the case of `COc1cc(-c2cc(C(F)F)c(=O)n(C)c2)cc(OC)c1CN1CCC2(C1)CN(c1ccn3c(=O)n(C4CCC(=O)NC4=O)nc3c1)C2` (stereo not drawn) [Compound D432], the DC50 (Table 5C) lay in the range of 10 to 100 nM.

For the compound `COc1cc(-c2cn(C)c(=O)c3cnccc23)cc(OC)c1CN(C)CCCCN1CC2(CCC(Oc3ccc4c(c3)C(=O)N(C3CCC(=O)NC3=O)C4=O)C2)C1` (stereo not drawn) [Compound D259], for the setting “Table 5B”, the DC50 was under 10 nM. With `COc1cc(-c2cn(C)c(=O)c3cnccc23)cc(OC)c1CN(C)CCCCN1CC2(C1)CN(c1ccc3c(c1)C(=O)N(C1CCC(=O)NC1=O)C3=O)C2` (stereo not drawn) [Compound D254], the DC50 (Table 5B) was under 10 nM. On to `COc1cc(-c2cn(C)c(=O)c3[nH]c(C)cc23)cc(OC)c1CN1CCC2(CC1)CN(c1ccc3c(c1)C(=O)N(C1CCC(=O)NC1=O)C3)C2` (stereo not drawn) [Compound D422], for which the DC50 (Table 5C) is under 10 nM.

Turning to `COc1cc(-c2cn(C)c(=O)c3ccnn23)cc(OC)c1CN1CCC2(CC1)CN(c1ccc3c(c1)C(=O)N(C1CCC(=O)NC1=O)C3)C2` (stereo not drawn) [Compound D456], for the setting “Table 5C”, the DC50 is under 10 nM.

Regarding `COc1cc(-c2cn(C)c(=O)c3cnccc23)cc(OC)c1CN(C)CC(=O)NCCCCOc1ccc(-c2ccc3c(c2)C(=O)C(C2CCC(=O)NC2=O)C3=O)cc1` (stereo not drawn) [DD7], the DC50 (Table 5B) was under 10 nM. In the case of `COc1cc(-c2cn(C)c(=O)c3cnccc23)cc(OC)c1CN(C)CCCCN1CCC2(CC1)CC(Oc1ccc3c(c1)C(=O)N(C1CCC(=O)NC1=O)C3=O)C2` (stereo not drawn) [Compound D228], where the note is “Table 5B”, the DC50 was under 10 nM.

Source of the values: patent US11414416B1, “Compounds and uses thereof” (Foghorn Therapeutics Inc., priority 2019, dated 2022).
